From US4317823A, “Pyrazolobenzodiazepinones, their intermediates, their compositions and their use” (Byk Gulden Lomberg Chemische Fabrik GmbH, priority 1979, dated 1982)

Legend:
stomach secretion = experiment: Inhibition of stomach secretion (gastric juice volume) in rats; assay type: in vivo, rat; details: 4 hours after administration of the antiulcerogenic ED50
Method: *% inhibition = inhibition (in %) of stomach secretion 4 hours after
administration of the antiulcerogenic ED50
(§1) Ulcers are provoked in rats which have been starved for 24 hours (female rats, 180 to 200 g, 4 animals in a cage with a high grille) by means of a pylorus ligature (under anaesthesia with diethyl ether) and oral administration of 100 mg/10 ml/kg of acetylsalicylic acid. The substances to be tested are administered orally (10 ml/kg) 1 hour before the pylorus ligature. The closure of the wound is effected by means of Michel's clips. The animals are killed 4 hours afterwards under ether anaesthesia by dislocating the atlas, and the stomach is cut out. The stomach is opened longitudinally and is fixed on a cork slab, the quantity of gastric juice secreted (volume) having been determined beforehand; the number and size (=diameter) of ulcers present are determined by means of a stereomicroscope at a 10-fold magnification. The product of the degree of severity (in accordance with the following rating scale) and the number of the ulcers is used as an individual ulcer index.

[1] = Determination of toxicity, intravenous LD50 in mice; details: mouse, in vivo, female NMRI mice, 7 days observation, 5 animals per dose, read-out: Toxicity LD50 administered intravenously to mice
Method: LD50 = the dose at which 50% of the animals die
The toxicity investigations are carried out on female NMRI mice (body weight 22 to 26 g). The animals (5 animals per dose) receive feed and water ad lib. Various doses of the substances are administered intravenously (duration of injection 1 minute). The observation period is 7 days. The LD50 (the dose at which 50% of the animals die) is determined by means of a linear regression.

Shay rats = experiment: Anti-ulcerogenic action (protective action on the stomach), Shay rats: pylorus ligature plus oral acetylsalicylic acid, ulcer index; assay type: in vivo; details: for TQ LD50/ED50 (therapeutic quotient): LD50 i.v. mice / ED50 p.o. rats; for ED50: Rattus norvegicus, Shay rats, oral 1 hour before pylorus ligature, dose which reduces the ulcer index by 50% compared with the control group, read-out: Protective action on the stomach ED50 administered perorally to rats; for dose dependence of the anti-ulcerogenic action (dose/action curve): Shay model
Method: ED50 = the dose which reduces the ulcer index for the group treated
by 50% compared with the control group
The anti-ulcerogenic action is tested by a method using the so-called Shay rats:
as §1
ulcer diameter 0.1-1.4 mm 1
The reduction in the average ulcer index in each group treated compared with that of the control group (=100%) is used as a measure of the anti-ulcerogenic effect. The ED50 indicates the dose which reduces the average ulcer index by 50%.

## Cc1nn(C)c2c1N(C(=O)CN1CCN(C)CC1)c1ccccc1NC2=O [Compound 2, 1,3-dimethyl-4-[(4-methylpiperazin-1-yl)acetyl]-1,4,9,10-tetrahydropyrazolo[4,3-b][1,5]benzodiazepin-10-one]
Stomach secretion
  % inhibition of stomach secretion in rats: 20%
[1]
  LD50 at 168 h: 210 mg/kg
Shay rats
  TQ LD50/ED50 (therapeutic quotient): 84.0
  ED50: 2.5 mg/kg
Shay rats; rats, 30 mg/kg
  inhibitory effect (anti-ulcerogenic action): up to 95%
Shay rats; rats
  dose dependence of the anti-ulcerogenic action (dose/action curve): depends strictly on the dose

## CC1(C)[C@@H](OC(=O)CCC(=O)O)CC[C@]2(C)[C@H]3C(=O)C=C4[C@@H]5C[C@@](C)(C(=O)O)CC[C@]5(C)CC[C@@]4(C)[C@]3(C)CC[C@@H]12 [Compound 1, carbenoxolone, reference compound]
Stomach secretion
  % inhibition of stomach secretion in rats: 7%
Shay rats
  TQ LD50/ED50 (therapeutic quotient): 4.1
  ED50: ~70 mg/kg
Shay rats; even at 300 mg/kg
  increase in the anti-ulcerogenic action above the ED50: not possible to achieve any substantial increase in the anti-ulcerogenic action
Shay rats; rats
  dose dependence of the anti-ulcerogenic action (dose/action curve): flattens out very considerably
